In a compilation of properties of binary mixtures (doi:10.3866/pku.whxb202001015):

Experiment: xn = mol fraction of the nth substance listed
Conditions: 293.15 K, 101.3 kPa

CC(=O)[O-].Cn1cc[nH+]c1 + CCO
Conditions | electrical conductivity [S/m]
x2 = 0.0616 | 0.449
x2 = 0.0975 | 0.527
x2 = 0.2701 | 0.821
x2 = 0.3985 | 1.33
x2 = 0.4978 | 1.7
x2 = 0.6604 | 2.27
x2 = 0.7397 | 2.34
x2 = 0.7865 | 1.92
x2 = 0.8291 | 1.52
x2 = 0.8486 | 1.31
x2 = 0.9522 | 0.312
x2 = 0.9648 | 0.199
x2 = 0.9725 | 0.139

CC(=O)[O-].Cn1cc[nH+]c1 + O
Conditions | electrical conductivity [S/m]
x2 = 0 | 0.326
x2 = 0.2845 | 2.06
x2 = 0.4277 | 3.44
x2 = 0.5098 | 4.31
x2 = 0.6959 | 6.95
x2 = 0.8691 | 9.7
x2 = 0.8823 | 8.7
x2 = 0.9207 | 5.18
x2 = 0.9425 | 2.9
x2 = 0.9559 | 1.7
x2 = 0.9677 | 0.849
